Experimental data published in PubChem BioAssay (NCI).
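Cultured in 96-well plates, cells were exposed to test compound for 48 hours across five concentrations. GI50 marks 50% less growth. TGI marks complete inhibition of growth.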

What was measured:
Assay in all cases: NCI anticancer screen, dose series, 48 h; in the data active = GI50 below about 0.43 µM; inactive = the rest
[1] = system: RPMI-8226 leukemia
[2] = system: HT29 colon
[3] = system: SK-MEL-5 melanoma
[4] = system: HS 578T breast
[5] = system: ACHN renal
[6] = system: CAKI-1 renal
[7] = system: OVCAR-3 ovarian
[8] = system: HCT-15 colon
[9] = system: MCF7 breast
[10] = system: PC-3 prostate
[11] = system: LOX IMVI melanoma
[12] = system: T-47D breast
[13] = system: COLO 205 colon
[14] = system: KM12 colon
[15] = system: OVCAR-8 ovarian
[16] = system: A498 renal
[17] = system: MDA-MB-435
[18] = system: SNB-19 CNS
[19] = system: SNB-75 CNS
[20] = system: HCT-116 colon
[21] = system: NCI/ADR-RES ovarian
[22] = system: TK-10 renal
[23] = system: SF-295 CNS
[24] = system: HCC-2998 colon
[25] = system: MALME-3M melanoma
[26] = system: HOP-62 NSCLC
[27] = system: SK-OV-3 ovarian
[28] = system: OVCAR-4 ovarian
[29] = system: SW-620 colon
[30] = system: A549 NSCLC
[31] = system: CCRF-CEM leukemia
[32] = system: UACC-62 melanoma
[33] = system: EKVX NSCLC
[34] = system: SF-268 CNS
[35] = system: MDA-MB-231 breast
[36] = system: SF-539 CNS
[37] = system: DU-145 prostate
[38] = system: SK-MEL-2 melanoma
[39] = system: SN12C renal
[40] = system: UACC-257 melanoma
[41] = system: M14 melanoma
[42] = system: NCI-H460 lung
[43] = system: BT-549 breast
[44] = system: IGROV1 ovarian
[45] = system: U251 CNS
[46] = system: K-562 leukemia
[47] = system: NCI-H226 lung
[48] = system: UO-31 renal
[49] = system: MOLT-4 leukemia
[50] = system: NCI-H522 lung
[51] = system: NCI-H23 lung
[52] = system: RXF 393 renal
[53] = system: HL-60(TB) leukemia
[54] = system: SK-MEL-28 melanoma
[55] = system: OVCAR-5 ovarian
[56] = system: 786-0 renal

CCOC(=O)c1csc(NC(=O)COc2cccc(/C=C3\CSc4ccccc4C3=O)c2)n1
0.382 µM: TGI [24]
active: GI50 [7] 0.158 µM | GI50 [10] 0.246 µM | GI50 [11] 0.071 µM | GI50 [14] 0.289 µM | GI50 [19] 0.275 µM | GI50 [24] 0.0447 µM | GI50 [25] 0.296 µM | GI50 [34] 0.204 µM | GI50 [36] 0.421 µM | GI50 [37] 0.409 µM | GI50 [44] 0.166 µM | GI50 [48] 0.145 µM | GI50 [51] 0.105 µM
6.18 µM: TGI [54]
4.45 µM: TGI [19]
5.42 µM: TGI [55]
24.5 µM: TGI [16]
25 µM: TGI [42]
18.5 µM: TGI [30]
1.6 µM: TGI [36]
0.286 µM: TGI [48]
1.22 µM: TGI [25]
3.41 µM: TGI [47]
0.932 µM: TGI [37]
0.57 µM: TGI [51]
18.2 µM: TGI [6]
5.06 µM: TGI [17]
7.25 µM: TGI [9]
16.7 µM: TGI [40]
3.9 µM: TGI [26]
7.02 µM: TGI [32]
6.97 µM: TGI [15]
1.69 µM: TGI [56]
19.1 µM: TGI [35]
inactive: GI50 [1] > 100 µM | GI50 [2] 0.608 µM | GI50 [3] 5.04 µM | GI50 [4] 1.45 µM | GI50 [5] 2.64 µM | GI50 [6] 1.26 µM | GI50 [8] 2.06 µM | GI50 [9] 1.13 µM | GI50 [12] 6.79 µM | GI50 [13] 8.58 µM | GI50 [15] 1.59 µM | GI50 [16] 12.1 µM | GI50 [17] 2.05 µM | GI50 [18] 9.19 µM | GI50 [20] 1.63 µM | GI50 [21] 2.46 µM | GI50 [22] 2.11 µM | GI50 [23] 0.908 µM | GI50 [26] 1.33 µM | GI50 [27] 13.1 µM | GI50 [28] 3.69 µM | GI50 [29] 0.992 µM | GI50 [30] 2.41 µM | GI50 [31] 0.472 µM | GI50 [32] 2.61 µM | GI50 [33] 2.29 µM | GI50 [35] 3.87 µM | GI50 [38] 0.448 µM | GI50 [39] 1.38 µM | GI50 [40] 5.72 µM | GI50 [41] 1.86 µM | GI50 [42] 9.3 µM | GI50 [43] 2.29 µM | GI50 [45] 0.585 µM | GI50 [46] > 100 µM | GI50 [47] 1.52 µM | GI50 [49] > 100 µM | GI50 [50] 0.581 µM | GI50 [52] 2.86 µM | GI50 [53] 0.638 µM | GI50 [54] 2.51 µM | GI50 [55] 1.04 µM | GI50 [56] 0.561 µM
1.35 µM: TGI [14]
0.208 µM: TGI [11]
1.49 µM: TGI [50]
26.7 µM: TGI [12]
17.3 µM: TGI [3]
11.2 µM: TGI [52]
5.66 µM: TGI [21]
8.99 µM: TGI [5]
1.52 µM: TGI [10]
3.04 µM: TGI [20]
> 100 µM: TGI [1] | TGI [46] | TGI [49]
2.7 µM: TGI [29]
0.332 µM: TGI [7]
2.18 µM: TGI [2]
2.11 µM: TGI [53]
4.62 µM: TGI [8]
2.44 µM: TGI [23]
6.22 µM: TGI [43]
0.363 µM: TGI [44]
25.9 µM: TGI [27]
17.9 µM: TGI [28]
7.36 µM: TGI [4]
1.31 µM: TGI [45]
22.6 µM: TGI [13]
0.502 µM: TGI [34]
6.58 µM: TGI [39]
4.18 µM: TGI [41]
0.989 µM: TGI [38]
19.9 µM: TGI [33]
9.62 µM: TGI [22]
22.7 µM: TGI [18]

O=[N+]([O-])c1sc2ccc(Cl)cc2c1Nc1ccc(Cl)cc1
> 100 µM: TGI [1] | TGI [2] | TGI [3] | TGI [4] | TGI [5] | TGI [7] | TGI [8] | TGI [9] | TGI [10] | TGI [11] | TGI [12] | TGI [13] | TGI [14] | TGI [15] | TGI [16] | TGI [17] | TGI [18] | TGI [19] | TGI [21] | TGI [22] | TGI [23] | TGI [24] | TGI [25] | TGI [26] | TGI [27] | TGI [28] | TGI [29] | TGI [30] | TGI [31] | TGI [32] | TGI [33] | TGI [34] | TGI [35] | TGI [36] | TGI [37] | TGI [38] | TGI [39] | TGI [41] | TGI [42] | TGI [43] | TGI [44] | TGI [45] | TGI [46] | TGI [47] | TGI [48] | TGI [49] | TGI [50] | TGI [51] | TGI [52] | TGI [53] | TGI [54] | TGI [55] | TGI [56]

C[C@@H]1CC[C@@H]2[C@@H](C)C[C@H]3[C@@H]4C(C)(C)OC(=O)[C@]4(C)C(=O)[C@@]23C1=O
> 100 µM: TGI [1] | TGI [2] | TGI [3] | TGI [4] | TGI [5] | TGI [6] | TGI [7] | TGI [8] | TGI [9] | TGI [10] | TGI [11] | TGI [12] | TGI [13] | TGI [14] | TGI [15] | TGI [17] | TGI [18] | TGI [19] | TGI [20] | TGI [21] | TGI [22] | TGI [23] | TGI [24] | TGI [25] | TGI [26] | TGI [27] | TGI [28] | TGI [29] | TGI [30] | TGI [31] | TGI [32] | TGI [33] | TGI [34] | TGI [35] | TGI [36] | TGI [37] | TGI [38] | TGI [39] | TGI [40] | TGI [41] | TGI [42] | TGI [43] | TGI [44] | TGI [45] | TGI [46] | TGI [47] | TGI [48] | TGI [49] | TGI [50] | TGI [51] | TGI [52] | TGI [53] | TGI [54] | TGI [55] | TGI [56]
inactive: GI50 [7] 75.9 µM | GI50 [8] 16.4 µM | GI50 [10] > 100 µM | GI50 [12] 65.3 µM | GI50 [32] 70 µM | GI50 [35] > 100 µM | GI50 [38] > 100 µM | GI50 [45] 31.9 µM | GI50 [48] > 100 µM | GI50 [50] > 100 µM | GI50 [52] > 100 µM
